One molecule from US9744211B2, “Uses of BT lipopeptides as therapeutics for obesity and related diseases” (MYGALAXY LIMITED COMPANY, priority 2012, dated 2017) can be followed below.

This assay has as its system isolated chicken heterophils. Put plainly: PMA-stimulated oxidative burst of heterophils in vitro (BT priming assay, with or without anti-TLR2 antibody blocking). The format is cell-based. Conditions: Group 2: PMA stimulation only, no BT. The source says:
However, the in vitro priming assay provides a useful tool for probing possible signaling pathway involved in BT-mediated innate immunomodulation. Since TLRs are conserved receptors playing key roles in innate immunity (Farnell et al., 2003) and TLR2 is the only TLR that has lipopeptide agonists, the same in vitro BT priming assay (Kogut et al., 2012) was employed to investigate whether TLR2 can function as a receptor for BT lipopeptides.
Goat polyclonal antibodies raised against human TLR2 were purchased from Santa Cruz Biotechnology Lab (Santa Cruz, Calif.). For TLR2-blocking, isolated chicken heterophils and the antibodies (2.0 μg/ml) were incubated, prior to the treatments of BT and/or PMA, at 39° C. for 30 minutes.

Consider `CCCCCCCCCCCCCC(=O)O[C@@H]1[C@@H](C)[C@@]2(O)[C@@H](C=C(CO)C[C@]3(O)C(=O)C(C)=C[C@@H]23)[C@@H]2C(C)(C)[C@]12OC(C)=O` [PMA], for which the “Oxidative burst (RFU + SE) in 10^3” value is recorded as 11.235 ± 0.125 RFU in 10^3.
